Measured values as given in ChEMBL document CHEMBL1909046, “DrugMatrix in vitro pharmacology data”.

Key:
Adenosine receptor A3 = biological target: T1, Adenosine receptor A3 (Homo sapiens, UniProt P0DMS8); assay type: cell membranes, CHO-K1, Membrane; conditions: cho-k1;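 also: radioligand binding assay with AB-MECA serving as the labeled ligand; in other assays of this panel Not Active means under 50% inhibition at 10 µM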
T1 sequence (P0DMS8 whole entry): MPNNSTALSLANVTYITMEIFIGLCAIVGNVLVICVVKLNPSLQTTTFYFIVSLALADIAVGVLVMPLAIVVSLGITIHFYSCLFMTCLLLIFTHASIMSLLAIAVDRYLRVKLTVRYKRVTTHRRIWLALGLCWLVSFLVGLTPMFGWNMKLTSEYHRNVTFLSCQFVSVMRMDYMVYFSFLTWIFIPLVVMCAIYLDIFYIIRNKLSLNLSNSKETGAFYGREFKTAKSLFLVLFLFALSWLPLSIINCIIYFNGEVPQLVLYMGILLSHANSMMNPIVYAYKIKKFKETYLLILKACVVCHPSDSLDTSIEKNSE

[1] = biological target: Epidermal growth factor receptor (Homo sapiens, UniProt P00533); assay: DRUGMATRIX: Protein Tyrosine Kinase, EGF Receptor enzyme inhibition (substrate: Poly(Glu:Tyr)); assay type: cell-based, Insect cells; conditions: insect cells; Not Active = under 50% inhibition at 10 µM
[2] = biological target: T2, Receptor-type tyrosine-protein phosphatase C (Homo sapiens, UniProt P08575); design: species or system Escherichia coli;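 also: inhibition of CD45 enzyme activity measured using DiFMUP as substrate; in other assays of this panel Not Active means under 50% inhibition at 10 µM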
T2 sequence (P08575 whole entry): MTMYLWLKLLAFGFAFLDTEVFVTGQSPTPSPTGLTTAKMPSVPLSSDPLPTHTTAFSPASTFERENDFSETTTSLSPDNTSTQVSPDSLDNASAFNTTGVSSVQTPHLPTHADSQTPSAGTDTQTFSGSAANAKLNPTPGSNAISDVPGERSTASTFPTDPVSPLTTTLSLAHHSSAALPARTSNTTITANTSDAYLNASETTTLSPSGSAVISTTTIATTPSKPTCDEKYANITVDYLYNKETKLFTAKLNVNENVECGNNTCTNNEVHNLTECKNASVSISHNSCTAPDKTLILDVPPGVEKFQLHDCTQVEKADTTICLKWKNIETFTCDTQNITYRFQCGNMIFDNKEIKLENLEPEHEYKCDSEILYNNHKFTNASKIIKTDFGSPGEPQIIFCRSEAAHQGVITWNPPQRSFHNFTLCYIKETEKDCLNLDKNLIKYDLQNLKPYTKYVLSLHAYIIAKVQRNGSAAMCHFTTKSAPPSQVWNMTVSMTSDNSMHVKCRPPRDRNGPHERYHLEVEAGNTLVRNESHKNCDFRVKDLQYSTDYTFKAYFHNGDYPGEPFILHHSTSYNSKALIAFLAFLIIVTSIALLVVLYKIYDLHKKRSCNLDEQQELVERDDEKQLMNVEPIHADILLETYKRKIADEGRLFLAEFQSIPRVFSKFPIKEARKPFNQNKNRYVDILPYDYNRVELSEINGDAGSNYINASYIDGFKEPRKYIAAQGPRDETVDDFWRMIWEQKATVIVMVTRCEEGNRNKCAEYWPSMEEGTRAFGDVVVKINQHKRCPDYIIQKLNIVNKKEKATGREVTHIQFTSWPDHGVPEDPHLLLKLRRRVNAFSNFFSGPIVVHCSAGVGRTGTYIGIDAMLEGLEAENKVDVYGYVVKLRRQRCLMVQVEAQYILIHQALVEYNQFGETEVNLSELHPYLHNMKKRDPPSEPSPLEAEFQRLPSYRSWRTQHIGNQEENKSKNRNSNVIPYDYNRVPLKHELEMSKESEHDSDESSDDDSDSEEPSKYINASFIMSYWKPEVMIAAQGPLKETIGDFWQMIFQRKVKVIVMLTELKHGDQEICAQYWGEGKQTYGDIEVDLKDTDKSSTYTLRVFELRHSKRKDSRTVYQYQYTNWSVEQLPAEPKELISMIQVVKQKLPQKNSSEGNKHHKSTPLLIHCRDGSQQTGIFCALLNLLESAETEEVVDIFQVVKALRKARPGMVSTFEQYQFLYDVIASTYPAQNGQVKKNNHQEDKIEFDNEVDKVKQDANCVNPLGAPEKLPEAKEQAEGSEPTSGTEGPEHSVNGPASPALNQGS

[3] = biological target: Mitogen-activated protein kinase 1 (Homo sapiens, UniProt P28482); assay: DRUGMATRIX: Protein Serine/Threonine Kinase, ERK2 enzyme inhibition (substrate: Myelin Basic Protein); design: species or system Escherichia coli; conditions: Not Active = under 50% inhibition at 10 µM
Mitogen-activated protein kinase 1, sequence (P28482 whole entry): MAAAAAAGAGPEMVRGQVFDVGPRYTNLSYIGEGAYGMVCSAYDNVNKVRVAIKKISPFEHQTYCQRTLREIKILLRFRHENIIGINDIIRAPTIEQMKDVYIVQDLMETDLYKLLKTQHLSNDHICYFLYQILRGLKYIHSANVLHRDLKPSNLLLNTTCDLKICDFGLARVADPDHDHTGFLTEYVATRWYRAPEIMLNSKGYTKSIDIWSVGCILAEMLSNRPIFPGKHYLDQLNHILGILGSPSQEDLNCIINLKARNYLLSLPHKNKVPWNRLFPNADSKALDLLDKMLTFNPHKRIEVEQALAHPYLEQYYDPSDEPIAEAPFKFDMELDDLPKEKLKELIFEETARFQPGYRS

[4] = biological target: C-C chemokine receptor type 2 (Homo sapiens, UniProt P41597); assay type: cell membranes, Membrane; conditions: cho-k1; also: in other assays of this panel Not Active means under 50% inhibition at 10 µM
C-C chemokine receptor type 2, sequence (P41597 whole entry): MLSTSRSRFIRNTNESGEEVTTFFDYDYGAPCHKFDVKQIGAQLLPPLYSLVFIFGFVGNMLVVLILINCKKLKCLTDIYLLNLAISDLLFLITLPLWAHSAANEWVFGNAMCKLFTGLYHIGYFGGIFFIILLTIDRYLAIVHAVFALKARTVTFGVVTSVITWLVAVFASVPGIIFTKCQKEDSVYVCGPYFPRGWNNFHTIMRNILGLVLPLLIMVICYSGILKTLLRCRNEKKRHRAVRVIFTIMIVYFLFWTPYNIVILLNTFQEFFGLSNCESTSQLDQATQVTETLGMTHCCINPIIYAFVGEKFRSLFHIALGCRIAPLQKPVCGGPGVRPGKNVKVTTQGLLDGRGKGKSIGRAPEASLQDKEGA

[5] = biological target: T3, Alpha-1A adrenergic receptor (Rattus norvegicus, UniProt P43140); assay: DRUGMATRIX: Alpha-1A adrenergic receptor radioligand binding (ligand: prazosin); assay type: cell membranes, Wistar, Submaxillary gland, Membrane; conditions: Not Active = under 50% inhibition at 10 µM
T3 sequence (P43140 whole entry): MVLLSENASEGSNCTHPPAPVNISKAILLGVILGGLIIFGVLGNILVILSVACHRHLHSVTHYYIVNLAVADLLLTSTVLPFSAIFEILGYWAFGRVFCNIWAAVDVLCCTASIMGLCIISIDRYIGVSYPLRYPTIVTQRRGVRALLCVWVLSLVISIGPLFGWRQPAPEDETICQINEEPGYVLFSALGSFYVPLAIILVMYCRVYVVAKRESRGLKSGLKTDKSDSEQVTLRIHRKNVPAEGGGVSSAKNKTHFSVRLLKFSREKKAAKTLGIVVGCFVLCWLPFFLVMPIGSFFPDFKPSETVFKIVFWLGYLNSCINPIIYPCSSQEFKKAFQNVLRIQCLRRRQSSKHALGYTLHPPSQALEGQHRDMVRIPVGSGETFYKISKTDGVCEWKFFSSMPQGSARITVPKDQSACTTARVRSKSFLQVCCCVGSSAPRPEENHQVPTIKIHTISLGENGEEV

ZIRCONIUM(IV) CHLORIDE
Not Active: IC50 (Adenosine receptor A3) | Ki (Adenosine receptor A3) | IC50 [1] | Ki [1] | IC50 [2] | Ki [2] | IC50 [3] | Ki [3] | IC50 [4] | Ki [4] | IC50 [5] | Ki [5]
